Test results reported in ChEMBL document CHEMBL6153149, “Cyclic Peptides Targeting Granzyme B: Potential Applications as PET Imaging Agents” (ACS Med Chem Lett, 2025).
Bridge positions count the residues as written; N and C are the ends. Square brackets hold non-standard residues; d marks the D form. Peptide text beside a SMILES is read from it. * marks the point of attachment. X1 = O=C(O)CN1CCN(CC(=O)O)CC(Cc2ccc(NC(=S)*)cc2)N(CC(=O)O)CC1; NMeF = CN[C@@H](Cc1ccccc1)C(=O)O

Target: Granzyme B (Homo sapiens, UniProt P10144)
Sequence (P10144 whole entry): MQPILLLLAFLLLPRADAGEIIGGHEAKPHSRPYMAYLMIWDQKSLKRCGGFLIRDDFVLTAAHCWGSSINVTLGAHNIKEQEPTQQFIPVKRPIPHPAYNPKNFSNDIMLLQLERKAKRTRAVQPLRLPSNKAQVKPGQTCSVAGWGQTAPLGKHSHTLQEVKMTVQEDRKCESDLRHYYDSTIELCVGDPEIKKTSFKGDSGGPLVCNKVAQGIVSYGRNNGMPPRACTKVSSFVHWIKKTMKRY
Test: Binding affinity to human granzyme B assessed as equilibrium dissociation constant by SPR method

Kd: 1.1 nM
Compound: CC(C)[C@@H]1NC(=O)[C@H](CC(=O)O)NC(=O)[C@H](Cc2ccc(O)cc2)NC(=O)[C@H](Cc2ccc(O)cc2)NC(=O)[C@H](Cc2ccccc2)N(C)C(=O)[C@H](Cc2ccccc2)N(C)C(=O)[C@H](Cc2ccccc2)NC(=O)CSC[C@@H](C(=O)NCC(=O)NCC(=O)N[C@@H](CCCCNC(=S)Nc2ccc(CC3CN(CC(=O)O)CCN(CC(=O)O)CCN3CC(=O)O)cc2)C(N)=O)NC(=O)[C@H](Cc2c[nH]cn2)NC(=O)[C@H](Cc2ccccc2)N(C)C(=O)[C@H](Cc2ccc(O)cc2)NC(=O)[C@H](C(C)C)NC(=O)[C@H](CC(=O)O)NC(=O)[C@H](C(C)C)NC(=O)[C@H](CC(=O)O)NC1=O (stereo partly specified) ({CH2CO}-F[NMeF][NMeF]YYDVDVDVY[NMeF]HCGGK(X1)-NH2; thioether N-15)
